Assays:
P-selectin = biological target: T1, P-selectin (Homo sapiens, UniProt P16109); test: In vitro inhibitory activity of compound was determined against Selectin P binding by ELISA assay
T1 sequence (P16109 whole entry): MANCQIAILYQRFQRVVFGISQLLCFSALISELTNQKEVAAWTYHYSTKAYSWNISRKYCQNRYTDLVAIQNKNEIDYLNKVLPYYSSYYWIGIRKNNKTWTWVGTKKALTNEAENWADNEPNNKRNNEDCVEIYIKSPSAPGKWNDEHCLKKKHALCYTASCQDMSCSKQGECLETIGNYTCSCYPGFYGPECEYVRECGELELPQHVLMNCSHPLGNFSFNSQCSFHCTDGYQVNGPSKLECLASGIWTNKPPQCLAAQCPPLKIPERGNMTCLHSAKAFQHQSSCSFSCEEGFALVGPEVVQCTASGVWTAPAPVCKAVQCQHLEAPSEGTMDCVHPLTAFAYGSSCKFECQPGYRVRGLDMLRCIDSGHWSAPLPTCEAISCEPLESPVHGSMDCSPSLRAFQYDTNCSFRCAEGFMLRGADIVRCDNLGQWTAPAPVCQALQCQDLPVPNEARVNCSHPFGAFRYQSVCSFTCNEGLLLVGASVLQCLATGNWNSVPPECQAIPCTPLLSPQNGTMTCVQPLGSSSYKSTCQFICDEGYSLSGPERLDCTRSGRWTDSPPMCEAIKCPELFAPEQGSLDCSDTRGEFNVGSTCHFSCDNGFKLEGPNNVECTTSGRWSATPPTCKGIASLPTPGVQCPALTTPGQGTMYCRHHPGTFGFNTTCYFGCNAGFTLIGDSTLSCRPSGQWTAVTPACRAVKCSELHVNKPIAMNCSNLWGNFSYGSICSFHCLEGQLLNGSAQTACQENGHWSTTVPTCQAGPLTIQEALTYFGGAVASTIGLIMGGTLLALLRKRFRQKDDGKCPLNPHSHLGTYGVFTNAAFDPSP

L-selectin = biological target: T2, L-selectin (Homo sapiens, UniProt P14151); test: In vitro inhibitory activity of compound was determined against Selectin L binding by ELISA assay
T2 sequence (P14151 whole entry): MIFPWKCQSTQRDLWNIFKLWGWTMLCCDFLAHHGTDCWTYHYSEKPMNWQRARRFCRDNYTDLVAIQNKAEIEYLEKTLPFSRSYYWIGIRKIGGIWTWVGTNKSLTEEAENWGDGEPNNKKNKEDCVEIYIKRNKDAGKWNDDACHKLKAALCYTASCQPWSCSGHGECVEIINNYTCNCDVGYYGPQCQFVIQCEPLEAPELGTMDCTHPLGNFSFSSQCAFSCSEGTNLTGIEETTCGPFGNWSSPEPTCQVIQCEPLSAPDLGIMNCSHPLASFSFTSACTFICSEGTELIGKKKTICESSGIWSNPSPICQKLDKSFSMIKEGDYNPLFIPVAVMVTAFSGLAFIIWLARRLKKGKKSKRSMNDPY

E-selectin = biological target: T3, E-selectin (Homo sapiens, UniProt P16581); test: In vitro inhibitory activity of compound was determined against Selectin E binding by ELISA assay
T3 sequence (P16581 whole entry): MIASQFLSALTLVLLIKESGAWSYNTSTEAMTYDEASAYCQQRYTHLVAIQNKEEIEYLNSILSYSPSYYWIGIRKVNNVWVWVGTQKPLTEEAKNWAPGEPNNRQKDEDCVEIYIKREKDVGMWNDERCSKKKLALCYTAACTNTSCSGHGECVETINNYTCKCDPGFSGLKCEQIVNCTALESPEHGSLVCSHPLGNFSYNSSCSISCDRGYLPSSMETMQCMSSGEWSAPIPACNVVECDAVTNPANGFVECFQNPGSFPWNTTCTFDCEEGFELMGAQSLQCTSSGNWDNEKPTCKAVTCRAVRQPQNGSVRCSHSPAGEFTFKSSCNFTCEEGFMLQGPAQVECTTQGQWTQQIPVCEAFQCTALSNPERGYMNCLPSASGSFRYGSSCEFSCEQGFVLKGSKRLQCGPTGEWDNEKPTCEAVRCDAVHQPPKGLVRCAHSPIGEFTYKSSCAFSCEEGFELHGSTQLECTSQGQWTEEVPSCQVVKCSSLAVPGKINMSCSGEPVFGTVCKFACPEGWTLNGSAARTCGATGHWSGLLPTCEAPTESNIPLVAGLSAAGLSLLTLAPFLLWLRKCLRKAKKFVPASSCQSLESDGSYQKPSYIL

IC50 (P-selectin)	IC50 (L-selectin)	IC50 (E-selectin)	Compound
0.45 µM	4 µM	3.5 µM	CCCCCCCCCCCCCCC(CCCCCCCCCCCCCC)C(=O)N[C@@H](CO[C@@H]1O[C@@H](CO)[C@H](O)[C@H](O)[C@H]1O)C(=O)N[C@H](CCC(=O)O)C(=O)NC
2.57 µM	2.34 µM	> 100 µM	CCCCCCCCCCCCCCC(CCCCCCCCCCCCCC)CN1CCCS[C@@H](CCC(=O)O)C(=O)N[C@H](CO[C@H]2O[C@H](CO)[C@@H](O)[C@@H](O)[C@@H]2O)C1=O
> 1000 µM	> 1000 µM		CC(=O)N[C@H]1[C@H]([C@H](O)[C@H](O)CO)O[C@@](O[C@H]2[C@@H](O)[C@@H](CO)O[C@@H](O[C@@H]([C@H](O[C@@H]3O[C@@H](C)[C@@H](O)[C@@H](O)[C@@H]3O)[C@H](C=O)NC(C)=O)[C@H](O)CO)[C@@H]2O)(C(=O)O)C[C@@H]1O [SIALYL LEWIS X]

Source: ChEMBL document CHEMBL1133272, “A solid-phase synthesis for beta-turn mimetics of sialyl Lewis X” (Bioorg Med Chem Lett, 2000)
